Results published in publication PMC6151508, “Development of Novel Nrf2/ARE Inducers Bearing Pyrazino[2,1-a]isoquinolin Scaffold with Potent In Vitro Efficacy and Enhanced Physicochemical Properties” (Molecules : A Journal of Synthetic Chemistry and Natural …, 2017).
≈ marks a conversion by molar mass, not a printed value.

How the values were obtained:
[1] = test system: antioxidant response element (ARE); design: method as in PMID 24053646; conditions: 10 μM, luciferase reporter assay; cited from earlier work
NQO1 [2] = test system: NQO1; design: method as in PMID 24053646; conditions: HCT116; cited from earlier work
colorectal adenomas = test system: colorectal adenomas; design: method as in PMID 24053646; conditions: AOM-DSS mouse model; cited from earlier work
Nrf2 [3] = test system: Nrf2; design: method as in PMID 24053646; conditions: HCT116; cited from earlier work
heme oxygenase-1 (HO-1) = test system: heme oxygenase-1 (HO-1); design: method as in PMID 24053646; conditions: HCT116; cited from earlier work
[4] = test system: antioxidant response element (ARE); test: ARE luciferase reporter assay in HepG2-ARE-C8 cells; type: cell-based; conditions: HepG2-ARE-C8, 12 h of treatment, mean ± SD n = 3; for fold induction at 0.1 µM / fold induction at 1 µM / fold induction at 5 µM / fold induction at 10 µM / fold induction at 50 µM / fold induction at 100 µM: read-out: ARE Inductivity in Luciferase Reporter Assay (induction fold)
Procedure: (§1) All the derivatives were evaluated for their ability to induce ARE in HepG2-ARE-C8 cell (HepG2 cells stably transfected with a luciferase reporter) by ARE luciferase reporter assay, and they were compared to the lead compound 2. At the same time, cytotoxicity studies were performed by the MTT assay against the HCT116 cells. The results of cytotoxic activity in vitro were expressed as the IC50 [18]. Because those compounds were designed for chemoprevention, they should not be cytotoxic.
HepG2-ARE-C8 cells (4 × 10^4 cells/well) were incubated overnight in 96-well plates, and then treated with different concentrations of test compounds. tBHQ was used as a positive control, DMSO was used as a negative control, and the luciferase cell culture lysis reagent was used as a blank. The medium was removed after 12 h treatment. Then, the cells were harvested in the luciferase cell culture lysis reagent together with 100 μL of cold PBS. Then, centrifuging the solution and 20 μL of the supernatant was used for determining the luciferase activity. The luciferase activity was measured by a Luminoskan Ascent (Thermo Scientific, Waltham, MA, USA). The data were obtained in triplicate and expressed as fold induction over the control. Induction fold = (RLUtest − RLUblank)/(RLUDMSOcontrol − RLUblank). RLU = relative light unit l.

[5] = MTT cell viability (cytotoxicity) assay; type: cell-based; conditions: human, HCT116 cells
Procedure: as §1
Cell viabilities were determined by using 3-[4,5-dimethylthiazol-2-yl]-2,5-diphenyltetrazolium bromide (MTT) assay. MTT was dissolved in (phosphate buffered solution) PBS to a concentration of 5 mg/mL. HCT116 cells (8 × 10^3 cells/well) were plated in 96-well plates and incubated overnight. Different concentrations of test compounds were added to each cell for 24 h at 37 °C, and the 20 μL MTT solution was added and incubated for an additional 4 h. Then, 100 μL of DMSO was added to dissolve formazan precipitate after the solution was removed. The OD value was determined at 570 nm by Elx800 absorbance microplate reader (BioTek, Winooski, VT, USA). IC50 value (concentration at which cell survival equals 50% of control) = […].

[6] = pKa by potentiometric titration (Gemini Profiler, pION); type: physicochemical
Description: (§2) Ketoprofen and propranolol were chosen as a control.
(§3) This is a new potentiometric acid−base titration method.

[7] = log D pH 7.4 by potentiometric titration (Gemini Profiler, pION); type: physicochemical
Description: as §2, §3

[8] = Water solubility by pH-metric method (pSOL model 3); type: physicochemical; conditions: for solubility: water, pH 7.4, aqueous buffer, thermodynamic from solid
Description: as §3

[9] = Parallel artificial membrane permeability assay (PAMPA by pION); conditions: pH 7.4
Procedure: (§6) Then we evaluated the physicochemical properties of a selected series of our compounds. […] All of them were evaluated with pKa, partition coefficient (log D, pH 7.4), membrane permeability (Pe, pH 7.4) and water solubility. […] Permeability (Pe) was determined by a standard parallel artificial membrane permeability assay (PAMPA by pION).
(§7) Permeability (Pe) was determined by a standard parallel artificial membrane permeability assay (PAMPA by pION).

HCT116 cells = test system: HCT116 cells; design: method as in PMID 24053646; conditions: previously reported value; cited from earlier work
NQO1 [10] = test: Western blot of NQO1 protein level in HCT116; type: cell-based, human; conditions: tBHQ at 100 μM
Description: (§4) Compound 3g was selected to evaluate its capacity to activate the expression of Nrf2-regulated NQO1 by measuring the protein levels in HCT116 via Western Blot. […] Those data further confirmed that 3g bearing pyrido[1,2-a]pyrazin scaffold could elevate both Nrf2 and downstream proteins of Nrf2 at the cellular level.
(§5) Anti-NQO1 (sc-271116), anti-Nrf2 (BS1258) and Anti-β-actin (AP0060) antibodies were purchased from Santa Cruz Biotechnology (Santa Cruz, CA, USA) and Bioworlde (Bioworlde, Visalia, CA, USA), respectively. The isolation of cell fractions and Western blotting were performed as detailed previously. Briefly, the extracts were separated by SDS-PAGE and then electrotransferred to PVDF membranes (Perkin Elmer, Northwalk, CT, USA). Membranes were blocked with 1% BSA for 1 h followed by incubation with a primary antibody at 4 °C overnight. Then they were washed and treated with a DyLight 800 labeled secondary antibody at 37 °C for 2 h. The membranes were screened through the odyssey infrared imaging System (LI-COR, Lincoln, NE, USA).

Nrf2 [11] = test: Western blot of Nrf2 protein level in HCT116; type: cell-based, human; conditions: HCT116, 10 μM
Description: as §4, §5

physchem = conditions: PAMPA, pH 7.4
Procedure: as §6, §7

Row | Structure (SMILES) | fold induction at 0.1 µM [4] | fold induction at 1 µM [4] | fold induction at 5 µM [4] | fold induction at 10 µM ([4]; 10 μM) | fold induction at 50 µM [4] | fold induction at 100 µM ([4]; 100 μM) | IC50 at 24 h [5] | pKa [6] | logD [7] | solubility [8] | melting point | Papp [9] | ARE Inductivity in Luciferase Reporter Assay (induction fold) ([4]; 10 μM) | also measured
1 | O=C(/C=C1\NCC2c3ccccc3CCN2C1=O)c1ccccc1 (stereo not shown) [Compound 1] |  |  |  |  |  |  |  |  |  |  |  |  |  | induction of ARE (previously reported) [1]: 26.87 fold; expression of NQO1 (NQO1 [2]): induce; development of colorectal adenomas (colorectal adenomas): significantly inhibit; nuclear translocation of Nrf2 (Nrf2 [3]): induce the nuclear translocation of Nrf2; expression of HO-1 (heme oxygenase-1 (HO-1)): induce
2 | O=C(C=C1NCC2c3ccccc3CCN2C1=O)c1cccc(NC(=O)N2CCOCC2)c1 (stereo not shown) [Compound 1e, N-(3-(2-(4-oxo-1,6,7,11b-tetrahydro-2H-pyrazino[2,1-a]isoquinolin-3(4H)-ylidene)acetyl)phenyl)morpholine-4-carboxamide] | 1.57 ± 0.05 | 1.97 ± 0.2 | 4.53 ± 0.28 | 5.48 ± 0.13 | 7.8 ± 3.94 | 35 ± 3.15 | 183 µM | 2.9 | 0.61 | 46 µg/mL (≈ 103 µM) | 228 to 230 °C | 53 ± 7.29 ×10⁻⁶ cm/s |  | 
3 | O=C(/C=C1\NCC2c3ccccc3CCN2C1=O)c1cccc(F)c1 (stereo not shown) [Compound 2] | 1.45 ± 0.39 | 6.2 ± 4.06 | 16.2 ± 0.3 | 31.2 | 7.51 ± 1.32 | 12.2 ± 3.32 | 165 µM | 2.78 | 2.38 | 22 µg/mL (≈ 65.4 µM) |  | 11.7 ± 2.2 ×10⁻⁶ cm/s | 31.17 ± 4.14 fold | water solubility ([8]; pH 7.4): 22 µg/mL (≈ 65.4 µM); induction of ARE (previously reported) [1]: 33.00 fold; IC50 (HCT116 cells): > 100 µM
4 | O=C(C=C1NCC2c3ccccc3CCN2C1=O)C1CCC1 (stereo not shown) [Compound 2c, 3-(2-cyclobutyl-2-oxoethylidene)-1,2,3,6,7,11b-hexahydro-4H-pyrazino[2,1-a]isoquinolin-4-one] | 2.96 ± 0.48 | 3.04 ± 0.08 | 5.73 ± 1.44 | 13.3 ± 0.44 | 28 ± 1.39 | 29 ± 2.45 | 190 µM | 3.02 | 1.22 | 170 µg/mL (≈ 574 µM) | 172 to 174 °C | 44 ± 5.42 ×10⁻⁶ cm/s |  | 
5 | O=C(C=C1NCC2CCCCN2C1=O)c1ccccc1 (stereo not shown) [Compound 3a, 3-(2-oxo-2-phenylethylidene)octahydro-4H-pyrido[1,2-a]pyrazin-4-one] | 1.2 ± 0.49 | 4.09 ± 0.79 | 15.8 ± 2.08 | 16.4 ± 0.55 | 29.9 ± 8.49 | 40.6 ± 1.78 | > 300 µM | 3.42 | 0.98 | 530 µg/mL (≈ 1960 µM) | 164 to 166 °C | 66.4 ± 5.08 ×10⁻⁶ cm/s |  | 
6 | O=C(C=C1NCC2CCCCN2C1=O)c1cccc(F)c1 (stereo not shown) [Compound 3b, 3-(2-(3-fluorophenyl)-2-oxoethylidene)octahydro-4H-pyrido[1,2-a]pyrazin-4-one] | 0.7 ± 0.35 | 5.98 ± 2.31 | 24.8 ± 2.67 | 33 | 40 ± 0.69 | 4.41 ± 2.89 | 168 µM | 3.1 | 1.23 | 290 µg/mL (≈ 1010 µM) | 156 to 158 °C | 54.5 ± 6 ×10⁻⁶ cm/s | 32.97 ± 3.68 fold | 
7 | O=C(C=C1NCC2CCCCN2C1=O)c1ccco1 (stereo not shown) [Compound 3g, 3-(2-(furan-2-yl)-2-oxoethylidene)octahydro-4H-pyrido[1,2-a]pyrazin-4-one] | 0.24 ± 0.15 | 1.5 ± 0.01 | 6.41 ± 3.14 | 27 | 41.6 ± 2.6 | 79.7 | > 300 µM | 2.08 | -0.34 | 3310 µg/mL (≈ 12700 µM) | 152 to 154 °C | 32.7 ± 1.92 ×10⁻⁶ cm/s | 27.01 ± 2.46 fold | ARE Inductivity in Luciferase Reporter Assay (induction fold) ([4]; 100 μM): 79.74 ± 1.92 fold; NQO1 protein level (Western blot) (NQO1 [10]): induced by 3g in a concentration-dependent manner; Nrf2 protein level (Western blot) (Nrf2 [11]): elevated the protein level of Nrf2
8 | CC(C)NCC(O)COc1cccc2ccccc12 (stereo not shown) [Propranolol] |  |  |  |  |  |  |  |  |  |  |  |  |  | Papp (physchem): 64.7 ± 8.58 ×10⁻⁶ cm/s
9 | CC(C)(C)c1cc(O)ccc1O [tBHQ, tert-butylhydroquinone, reference compound] | 1 ± 0.01 | 1.8 ± 0.66 | 1.67 ± 0.56 | 1.98 ± 0.29 | 4.45 ± 1.15 | 10.8 |  |  |  |  |  |  |  | ARE Inductivity in Luciferase Reporter Assay (induction fold) ([4]; 100 μM): 10.79 ± 3.13 fold; NQO1 protein level (Western blot) (NQO1 [10]): induced expression of NQO1
